Tests used:
T-47D = test: Cellular Assay T-47D; assay type: cell-based; settings: Homo sapiens, T47D; T-47D cells
[1] = molecular target: human full length PIK3CA H1047R mutant (p110α/p85α complex) (Homo sapiens (Human), UniProt P42336, H1047R); test: PI3K-Alpha kinase (PIK3CA) activity, H1047R mutant, Transcreener ADP2 FI assay; settings: PI3K-α (PIK3CA) H1047R mutant, biochemical
Procedure: (§1) PI3K-Alpha kinase (PIK3CA) activity, wild-type and H1047R mutant and determining IC50 values for inhibitors
(§2) Recombinant, catalytically active human full length PIK3KA Wild-type and H1047R mutant were purchased as 1:1 complex of N-terminal 6×his tagged p110<(catalytic) and untagged p85<(regulatory subunit) from EMD Millipore Sigma (cat. no. 14-602M and 14-792M, respectively). The enzyme stocks were diluted to 5× stocks in buffer (20 mM HEPES pH 7.4, 100 mM NaCl, 0.5 mM EGTA, 0.01% triton-x-100) just before use. PIP2diC8 (Avanti Polar Lipids Inc., cat. no. 850185) or phosphoinositol-4,5-bisphosphate with phosphoserine (PIP2:PS) membrane (Thermo Fisher Scientific, cat. no. PV5100) was used as lipid substrates. PIP2diC8 lyophilized powder and PIP2:PS (1:19) membrane stock (1 mM in PIP2) were separately dissolved in milliQ water to a concentration of 250 uM and stored in −20° C. 10 mM stocks of compounds were serially diluted (3×) in neat DMSO and stored in a dessicator at room temperature. 5× compound stocks in 25% DMSO were prepared fresh from neat DMSO stocks. Wild-type (WT) and H1047R mutant protein, along with buffer components (except ATP), were incubated with or without compound at 27° C. for 1h. After incubation, the reaction was initiated by the addition of 5 uL of 125 uM ATP. A typical assay mixture (25 uL) comprised 40 mM HEPES buffer, pH 7.4, 25 mM MgCl2, 0.01% v/v triton-X-100, 5% v/v DMSO, 20 mM NaCl, 1-5 nM wt or H1047R, 25 uM ATP, and 50 uM PTP2diC8 or PTP2 in membrane. The reaction was allowed to proceed until about […] (2.5 uM ADP) after which time, 10 uL of reaction mixture was quenched with 25 uL of transcreener reagent (Transcreener ADP2 FI assay kit, BellBrook labs, Cat. No. 3013). The contents were incubated at rt for 1h and fluorescence was measured using a plate reader (Paradigm, Molecular Devices). The same assay was also run at pH 6.0 or 6.4 using MOPS buffer (Fisher BioReagents, CAS 1132-61-2). A calibration curve was generated under identical buffer conditions with varying ADP amounts. Using that, the observed fluorescence was converted to uM ADP. A plot between [ADP] and log[I] yielded the dose-response curves that enabled the calculation of IC50s.

[2] = molecular target: human full length PIK3CA Wild-type (p110α/p85α complex) (Homo sapiens (Human), UniProt P42336); test: PI3K-Alpha kinase (PIK3CA) activity, wild-type, Transcreener ADP2 FI assay; settings: PI3K-α (PIK3CA) wild-type, biochemical
Procedure: as §1, §2

Sequence of human full length PIK3CA H1047R mutant (p110α/p85α complex) (P42336 whole entry H1047R): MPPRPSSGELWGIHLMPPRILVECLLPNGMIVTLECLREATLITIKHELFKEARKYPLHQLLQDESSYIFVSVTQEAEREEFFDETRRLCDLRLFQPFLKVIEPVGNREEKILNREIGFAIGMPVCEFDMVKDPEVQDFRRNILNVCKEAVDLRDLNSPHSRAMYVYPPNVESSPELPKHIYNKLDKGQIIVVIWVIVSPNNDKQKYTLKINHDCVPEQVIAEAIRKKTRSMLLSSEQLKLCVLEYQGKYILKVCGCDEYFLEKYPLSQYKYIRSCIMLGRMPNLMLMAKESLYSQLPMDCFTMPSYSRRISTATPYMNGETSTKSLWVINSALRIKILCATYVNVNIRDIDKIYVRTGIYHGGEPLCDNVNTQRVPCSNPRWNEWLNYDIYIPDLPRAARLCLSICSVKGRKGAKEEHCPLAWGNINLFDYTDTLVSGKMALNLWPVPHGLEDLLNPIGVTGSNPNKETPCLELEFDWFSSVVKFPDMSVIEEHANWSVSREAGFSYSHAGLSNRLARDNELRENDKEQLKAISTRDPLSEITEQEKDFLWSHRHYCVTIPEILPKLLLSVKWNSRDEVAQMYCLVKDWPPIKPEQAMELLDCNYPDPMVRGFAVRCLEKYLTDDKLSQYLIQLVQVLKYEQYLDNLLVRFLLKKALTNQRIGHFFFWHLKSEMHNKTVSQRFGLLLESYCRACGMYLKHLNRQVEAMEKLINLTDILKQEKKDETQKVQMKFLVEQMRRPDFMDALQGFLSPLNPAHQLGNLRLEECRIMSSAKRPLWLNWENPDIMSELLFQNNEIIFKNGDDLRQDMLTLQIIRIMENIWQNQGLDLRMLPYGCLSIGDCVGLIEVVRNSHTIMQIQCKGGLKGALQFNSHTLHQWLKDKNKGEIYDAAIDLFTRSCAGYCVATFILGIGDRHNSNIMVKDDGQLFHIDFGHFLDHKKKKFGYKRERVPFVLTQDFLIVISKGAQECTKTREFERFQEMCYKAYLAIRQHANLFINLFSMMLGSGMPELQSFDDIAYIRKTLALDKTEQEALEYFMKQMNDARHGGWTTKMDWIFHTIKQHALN
Sequence of human full length PIK3CA H1047R mutant (p110α/p85α complex) (P27986 whole entry partner): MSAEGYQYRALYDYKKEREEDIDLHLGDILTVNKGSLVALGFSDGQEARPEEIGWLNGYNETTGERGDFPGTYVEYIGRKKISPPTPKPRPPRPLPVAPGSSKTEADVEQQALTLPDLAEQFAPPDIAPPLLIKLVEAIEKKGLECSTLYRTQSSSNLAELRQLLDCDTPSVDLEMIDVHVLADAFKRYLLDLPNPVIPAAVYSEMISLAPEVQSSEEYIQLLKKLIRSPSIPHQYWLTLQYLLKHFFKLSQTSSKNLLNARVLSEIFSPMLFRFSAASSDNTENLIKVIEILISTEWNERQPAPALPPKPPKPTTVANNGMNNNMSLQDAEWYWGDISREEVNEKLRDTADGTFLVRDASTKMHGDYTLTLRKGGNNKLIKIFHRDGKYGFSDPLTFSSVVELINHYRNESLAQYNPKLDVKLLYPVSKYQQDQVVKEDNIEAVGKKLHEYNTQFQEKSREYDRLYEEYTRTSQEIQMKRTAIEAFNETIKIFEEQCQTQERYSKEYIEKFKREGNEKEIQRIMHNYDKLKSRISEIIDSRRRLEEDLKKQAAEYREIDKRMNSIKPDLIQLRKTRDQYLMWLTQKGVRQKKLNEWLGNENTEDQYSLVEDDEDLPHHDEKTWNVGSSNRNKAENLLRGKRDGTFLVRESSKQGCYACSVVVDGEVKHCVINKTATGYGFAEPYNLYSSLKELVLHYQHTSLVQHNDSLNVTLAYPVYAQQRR
Sequence of human full length PIK3CA Wild-type (p110α/p85α complex) (P42336 whole entry): as the sequence (P42336 whole entry H1047R) above, with R1047H counted along it
Sequence of human full length PIK3CA Wild-type (p110α/p85α complex) (P27986 whole entry partner): as the sequence (P27986 whole entry partner) above

Structure (SMILES)	EC50 (T-47D) [µM]	IC50 [1] [µM]	IC50 [2] [µM]
Cc1cc(C(C)Nc2ccccc2C(=O)O)c2oc(N3CCC(C)(C)CC3)c(C)c(=O)c2c1 (single isomer, unassigned) [Example 358, 2-[1-[2-(4,4-Dimethyl-1-piperidyl)-3,6-dimethyl-4-oxo-chromen-8-yl]ethylamino]benzoic acid]	< 1	–	–
Cc1cc(C(C)Nc2cccc3cc(C(=O)O)sc23)c2oc(N3CCC(C)(C)CC3)cc(=O)c2c1 (centres unmarked) [Example 46, 7-[1-[2-(4,4-Dimethyl-1-piperidyl)-6-methyl-4-oxo-chromen-8-yl]ethylamino]benzothiophene-2-carboxylic acid]	–	0.5 to 1	1 to 5
Cc1cc(C(C)Nc2ccccc2C(=O)O)c2oc(N3Cc4ccccc4C3)c(C)c(=O)c2c1 (single isomer, unassigned; isomer 1) [Example 265, 2-[1-(2-Isoindolin-2-yl-3,6-dimethyl-4-oxo-chromen-8-yl)ethylamino]benzoic acid, Isomer 1]	–	< 0.5	1 to 5
Cc1c(N2Cc3ccccc3C2)oc2c(C(C)Nc3ccccc3C(=O)O)cc(F)cc2c1=O (single isomer, unassigned) [Example 324, 2-[1-(6-Fluoro-2-isoindolin-2-yl-3-methyl-4-oxo-chromen-8-yl)ethylamino]benzoic acid]	–	< 0.5	< 0.5
Cc1c(N2CCC3(CC2)CC3)oc2c(C(C)Nc3ccccc3C(=O)O)cc(F)cc2c1=O (single isomer, unassigned) [Example 328, 2-[1-[2-(6-Azaspiro[2.5]octan-6-yl)-6-fluoro-3-methyl-4-oxo-chromen-8-yl]ethylamino]benzoic acid]	–	< 0.5	< 0.5
Cc1cc(C(C)Nc2ccc(F)cc2C(=O)O)c2oc(N3Cc4ccc(F)cc4C3)cc(=O)c2c1 (single isomer, unassigned) [Example 349, 5-Fluoro-2-[1-[2-(5-fluoroisoindolin-2-yl)-6-methyl-4-oxo-chromen-8-yl]ethylamino]benzoic acid]	–	< 0.5	< 0.5
CCC1(c2ccccc2)CN(c2cc(=O)c3cc(C)cc(C(C)Nc4ccccc4C(=O)O)c3o2)C1 (single isomer, unassigned) [Example 212, 2-[1-[2-(3-Ethyl-3-phenyl-azetidin-1-yl)-6-methyl-4-oxo-chromen-8-yl]ethylamino]benzoic acid 2,2,2-trifluoroacetic acid]	–	< 0.5	0.5 to 1
Cc1cc(C(C)Nc2ccccc2C(=O)O)c2oc(N3Cc4ccc(F)cc4C3)c(C)c(=O)c2c1 (single isomer, unassigned) [Example 272, 2-[1-[2-(5-Fluoroisoindolin-2-yl)-3,6-dimethyl-4-oxo-chromen-8-yl]ethylamino]benzoic acid]	–	< 0.5	0.5 to 1
Cc1cc(C(C)Nc2ccccc2C(=O)O)c2oc(N3C4CCCC3C4)cc(=O)c2c1 (single isomer, unassigned; isomer 2) [Example 425, 2-[1-[2-(6-Azabicyclo[3.1.1]heptan-6-yl)-6-methyl-4-oxo-chromen-8-yl]ethylamino]benzoic acid, Isomer 2]	–	< 0.5	1 to 5
COC12CC(C1)N(c1cc(=O)c3cc(C)cc(C(C)Nc4ccccc4C(=O)O)c3o1)C2 (single isomer, unassigned) [Example 111, 2-[1-[2-(4-Methoxy-2-azabicyclo[2.1.1]hexan-2-yl)-6-methyl-4-oxo-chromen-8-yl]ethylamino]benzoic acid]	–	> 10	> 10

Next, values leading:

EC50 (T-47D) [µM]	IC50 [1] [µM]	IC50 [2] [µM]	Structure (SMILES)
5 to 15	–	–	COc1ccc(NC(C)c2cc(C)cc3c(=O)cc(N4CCC(C)(C)CC4)oc23)c(C(=O)O)c1 (centres unmarked) [Example 15, 2-[1-[2-(4,4-Dimethyl-1-piperidyl)-6-methyl-4-oxo-chromen-8-yl]ethylamino]-5-methoxy-benzoic acid]
> 24	–	–	Cc1cc(C(C)Nc2ccccc2C(=O)O)c2oc(N3CCC4(CC3)COC4)cc(=O)c2c1 (centres unmarked) [Example 98, 2-[1-[6-Methyl-2-(2-oxa-7-azaspiro[3.5]nonan-7-yl)-4-oxo-chromen-8-yl]ethylamino]benzoic acid]
> 24	–	–	Cc1cc(CNc2ccccc2C(=O)O)c2oc(N3CCC(C)(C)CC3)cc(=O)c2c1 [Example 369, 2-[[2-(4,4-Dimethyl-1-piperidyl)-6-methyl-4-oxo-chromen-8-yl]methylamino]benzoic acid]
> 24	–	–	Cc1cc(C(C)Nc2ccccc2C(=O)O)c2oc(NCC(C)C)cc(=O)c2c1 (centres unmarked) [Example 77, 2-[1-[2-(Isobutylamino)-6-methyl-4-oxo-chromen-8-yl]ethylamino]benzoic acid]
> 24	–	–	Cc1cc(C(C)Nc2ccccc2C(=O)O)c2oc(N(C)C)cc(=O)c2c1 (centres unmarked) [Example 78, 2-[1-[2-(Dimethylamino)-6-methyl-4-oxo-chromen-8-yl]ethylamino]benzoic acid]
–	< 0.5	0.5 to 1	Cc1c(N2Cc3ccccc3C2)oc2c(C(C)Nc3ccccc3C(=O)O)cc(C(F)(F)F)cc2c1=O (single isomer, unassigned) [Example 348, 2-[1-[2-Isoindolin-2-yl-3-methyl-4-oxo-6-(trifluoromethyl)chromen-8-yl]ethylamino]benzoic acid]
–	< 0.5	0.5 to 1	CC(Nc1ccccc1C(=O)O)c1cc(C(F)(F)F)cc2c(=O)cc(N3Cc4ccc(F)cc4C3)oc12 (single isomer, unassigned) [Example 335, 2-[1-[2-(5-Fluoroisoindolin-2-yl)-4-oxo-6-(trifluoromethyl)chromen-8-yl]ethylamino]benzoic acid]
–	0.5 to 1	5 to 10	Cc1cc(C(C)Nc2ccccc2C(=O)O)c2oc(N3CCCC4(CCOCC4)C3)cc(=O)c2c1 (centres unmarked) [Example 76, 2-[1-[6-Methyl-2-(9-oxa-2-azaspiro[5.5]undecan-2-yl)-4-oxo-chromen-8-yl]ethylamino]benzoic acid]
–	1 to 5	1 to 5	Cc1cc(C(C)Nc2ccccc2S(=O)(=O)O)c2oc(N3CCC(C)(C)CC3)cc(=O)c2c1 (centres unmarked) [Example 4, 2-[1-[2-(4,4-Dimethyl-1-piperidyl)-6-methyl-4-oxo-chromen-8-yl]ethylamino]benzenesulfonic acid]
–	0.5 to 1	1 to 5	CC(Nc1ccccc1C(=O)O)c1cc(C(F)(F)F)cc2c(=O)cc(N3CCC(C)(C)CC3)oc12 (centres unmarked) [Example 57, 2-[1-[2-(4,4-dimethyl-1-piperidyl)-4-oxo-6-(trifluoromethyl)chromen-8-yl]ethylamino]benzoic acid]
–	< 0.5	1 to 5	Cc1cc(C(C)Nc2ccccc2C(=O)O)c2oc(N3CC4(CCN4c4ccccc4)C3)cc(=O)c2c1 (single isomer, unassigned) [Example 203, 2-[1-[6-Methyl-4-oxo-2-(1-phenyl-1,6-diazaspiro[3.3]heptan-6-yl)chromen-8-yl]ethylamino]benzoic acid 2,2,2-trifluoroacetic acid]
–	0.5 to 1	0.5 to 1	Cc1cc(C(C)Nc2ccccc2S(=O)(=O)C(F)F)c2oc(N3CCC(C)(C)CC3)cc(=O)c2c1 (centres unmarked) [Example 38, 8-[1-[2-(Difluoromethylsulfonyl)anilino]ethyl]-2-(4,4-dimethyl-1-piperidyl)-6-methyl-chromen-4-one]
–	< 0.5	< 0.5	CC(Nc1ccccc1C(=O)O)c1cc(C(F)(F)F)cc2c(=O)cc(N3Cc4ccc(C#N)cc4C3)oc12 (single isomer, unassigned; isomer 2) [Example 338, 2-[1-[2-(5-Cyanoisoindolin-2-yl)-4-oxo-6-(trifluoromethyl)chromen-8-yl]ethylamino]benzoic acid, Isomer 2]
–	> 10	5 to 10	Cc1cc(C(C)Nc2cccc(F)c2C(=O)O)c2oc(N3Cc4ccc(F)cc4C3)c(C)c(=O)c2c1 (single isomer, unassigned) [Example 244, 2-Fluoro-6-[1-[2-(5-fluoroisoindolin-2-yl)-3,6-dimethyl-4-oxo-chromen-8-yl]ethylamino]benzoic acid]
–	0.5 to 1	1 to 5	Cc1cc(C(C)Nc2ccc(C3CC3)nc2C(=O)O)c2oc(N3CCC(C)(C)CC3)cc(=O)c2c1 (centres unmarked) [Example 50, 6-Cyclopropyl-3-[1-[2-(4,4-dimethyl-1-piperidyl)-6-methyl-4-oxo-chromen-8-yl]ethylamino]pyridine-2-carboxylic acid]
